Measured values reported in ChEMBL document CHEMBL5149994, “Anticancer potential of indirubins in medicinal chemistry: Biological activity, structural modification, and structure-activity relationship” (Eur J Med Chem, 2021).
Values belong to the molecule of their own block, whether it stands above or below them.

Experiments:
Aurora kinase A = Aurora kinase A (Homo sapiens, UniProt O14965); experiment: Inhibition of Aurora A (unknown origin)
Aurora kinase B = Aurora kinase B (Homo sapiens, UniProt Q96GD4); experiment: Inhibition of Aurora B (unknown origin)
Aurora kinase C = Aurora kinase C (Homo sapiens, UniProt Q9UQB9); experiment: Inhibition of Aurora C (unknown origin)
[1] = target: Glycogen synthase kinase-3 (Homo sapiens, UniProt P49840+P49841); experiment: Inhibition of GSK3 (unknown origin); format: protein assay
A2058 = experiment: Antitumor activity against human A2058 cells xenografted in BALB/c mouse assessed as reduction in tumour volume at 50 mg/kg per day, po administered via oral gavage treated every other day for 14 days relative to control; format: functional; design: scale not given: the % may be the effect or the level left; details: time 14 day
[2] = Antitumor activity against mouse 4T1-Luc cells xenografted in BALB/c mouse assessed as decrease in lung metastasis at 1 mg/kg, iv measured after 8 days […]; format: functional; design: scale not given: the % may be the effect or the level left; details: time 8 day
MCF7 [3] = experiment: Antiproliferative activity against human MCF7 cells assessed as cell growth inhibition at 10 uM by crystal violet staining based assay relative to control; format: functional; design: scale not given: the % may be the effect or the level left
K562 = experiment: Antitumor activity against human K562 cells xenografted in BALB/c mouse assessed as reduction in tumour volume at 6 mg/kg, ip treated every other day for 2 weeks relative to control; format: functional; design: scale not given: the % may be the effect or the level left
K-562R = experiment: Antiproliferative activity against imatinib-resistant human K-562R cells assessed as cell growth inhibition measured after 72 hrs by MTT assay; format: functional, cell-based
SK-N-SH = experiment: Antiproliferative activity against human SK-N-SH cells assessed as cell growth inhibition; format: functional, cell-based
IMR-32 = experiment: Antiproliferative activity against human IMR-32 cells assessed as cell growth inhibition; format: functional, cell-based
CT26 [4] = experiment: Antitumor activity against mouse CT26 cells in BALB/c mouse assessed as reduction in tumour weight at 200 mg/kg, ILES daily measured after 15 days relative to control; format: functional; design: scale not given: the % may be the effect or the level left; details: time 15 day
[5] = target: Vascular endothelial growth factor receptor 2 (Homo sapiens, UniProt P35968); experiment: Inhibition of VEGFR2 (unknown origin)
[6] = target: Proto-oncogene tyrosine-protein kinase Src (Homo sapiens, UniProt P12931); experiment: Inhibition of c-SRC in human MDA-MB-468 cells in presence of [gamma-32P]ATP and ATP by immunoprecipitation method; format: cell-based
HCT-116 = experiment: Antiproliferative activity against human HCT-116 cells assessed as cell growth inhibition; format: functional, cell-based
LXFL 529 = experiment: Antiproliferative activity against human LXFL 529 cells assessed as cell growth inhibition; format: functional, cell-based
CT26 [7] = experiment: Antitumor activity against mouse CT26 cells in BALB/c mouse assessed as reduction in tumour volume at 200 mg/kg, ILES daily measured after 15 days relative to control; format: functional; design: scale not given: the % may be the effect or the level left; details: time 15 day
[8] = target: Cyclin-dependent kinase 5/CDK5 activator 1 (Homo sapiens, UniProt Q00535); experiment: Inhibition of GST-fused CDK5/p25 (unknown origin); format: protein-complex assay
LNCaP = experiment: Cytotoxicity against human LNCaP cells assessed as cell growth inhibition by MTT assay; format: functional, cell-based
[9] = target: Glycogen synthase kinase-3 (Sus scrofa, UniProt B2LUN4+I6LNT8); experiment: Inhibition of porcine brain GSK-3alpha/beta incubated for 30 mins in presence of [33p]-gamma ATP by scintillation counter analysis
MCF7 [10] = experiment: Cytotoxicity against human MCF7 cells assessed as cell growth inhibition by MTT assay; format: functional, cell-based
LoVo = experiment: Cytotoxicity against human LoVo cells assessed as cell growth inhibition by MTT assay; format: functional, cell-based
[11] = Inhibition of starfish oocyte CDK1/Cyclin B using histone H1 as substrate incubated for 10 mins in presence of [gamma-32P]ATP by scintillation counter analysis; design: species or system Marthasterias glacialis
[12] = target: ALK tyrosine kinase receptor (Homo sapiens, UniProt Q9UM73); experiment: Inhibition of ALK (unknown origin) by TR-FRET assay
[13] = target: Tyrosine-protein kinase JAK2 (Homo sapiens, UniProt O60674); experiment: Inhibition of JAK2 (unknown origin) by TR-FRET assay
HT-29 = experiment: Antiproliferative activity against human HT-29 cells assessed as cell growth inhibition measured after 72 hrs by tetrazolium staining based assay; format: functional; details: HT-29, 72 h
[14] = target: Hepatocyte growth factor receptor (Homo sapiens, UniProt P08581); experiment: Inhibition of c-met (unknown origin) by TR-FRET assay
Sequence of Hepatocyte growth factor receptor (P08581 whole entry): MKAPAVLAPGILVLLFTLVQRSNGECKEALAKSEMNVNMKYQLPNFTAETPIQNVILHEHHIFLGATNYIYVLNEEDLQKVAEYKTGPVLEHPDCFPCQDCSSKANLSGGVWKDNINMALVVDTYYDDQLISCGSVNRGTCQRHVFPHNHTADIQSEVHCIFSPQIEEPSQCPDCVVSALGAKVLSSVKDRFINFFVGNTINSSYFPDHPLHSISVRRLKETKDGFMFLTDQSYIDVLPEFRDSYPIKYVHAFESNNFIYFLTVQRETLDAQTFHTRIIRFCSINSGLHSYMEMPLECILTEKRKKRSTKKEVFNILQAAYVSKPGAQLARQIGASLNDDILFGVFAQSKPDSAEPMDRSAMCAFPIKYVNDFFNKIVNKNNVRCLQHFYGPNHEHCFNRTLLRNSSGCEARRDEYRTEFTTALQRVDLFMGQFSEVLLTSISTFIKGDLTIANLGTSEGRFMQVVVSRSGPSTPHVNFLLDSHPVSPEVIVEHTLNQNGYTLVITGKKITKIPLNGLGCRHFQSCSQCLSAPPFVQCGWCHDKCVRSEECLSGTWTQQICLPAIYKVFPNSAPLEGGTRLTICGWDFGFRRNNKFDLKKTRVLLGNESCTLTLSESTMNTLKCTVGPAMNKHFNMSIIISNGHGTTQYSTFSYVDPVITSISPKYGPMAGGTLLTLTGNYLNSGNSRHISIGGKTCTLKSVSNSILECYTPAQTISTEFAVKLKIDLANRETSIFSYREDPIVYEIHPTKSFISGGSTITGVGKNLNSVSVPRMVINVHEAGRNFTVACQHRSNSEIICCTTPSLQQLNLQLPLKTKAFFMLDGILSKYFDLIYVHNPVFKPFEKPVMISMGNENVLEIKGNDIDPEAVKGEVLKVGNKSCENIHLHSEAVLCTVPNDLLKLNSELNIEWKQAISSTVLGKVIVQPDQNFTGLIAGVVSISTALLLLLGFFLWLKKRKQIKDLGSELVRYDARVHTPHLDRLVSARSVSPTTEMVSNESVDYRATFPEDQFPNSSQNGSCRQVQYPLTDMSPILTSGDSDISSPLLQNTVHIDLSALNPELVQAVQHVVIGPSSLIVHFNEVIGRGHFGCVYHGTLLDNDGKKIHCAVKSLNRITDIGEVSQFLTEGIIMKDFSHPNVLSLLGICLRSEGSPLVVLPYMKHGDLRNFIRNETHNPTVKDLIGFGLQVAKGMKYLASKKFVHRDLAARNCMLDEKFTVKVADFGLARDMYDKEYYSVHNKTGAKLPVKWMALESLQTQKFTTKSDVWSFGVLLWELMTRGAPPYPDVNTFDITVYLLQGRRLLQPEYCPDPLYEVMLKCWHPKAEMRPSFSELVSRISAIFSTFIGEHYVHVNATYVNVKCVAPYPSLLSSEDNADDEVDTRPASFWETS

Sequence of Aurora kinase B (Q96GD4 whole entry): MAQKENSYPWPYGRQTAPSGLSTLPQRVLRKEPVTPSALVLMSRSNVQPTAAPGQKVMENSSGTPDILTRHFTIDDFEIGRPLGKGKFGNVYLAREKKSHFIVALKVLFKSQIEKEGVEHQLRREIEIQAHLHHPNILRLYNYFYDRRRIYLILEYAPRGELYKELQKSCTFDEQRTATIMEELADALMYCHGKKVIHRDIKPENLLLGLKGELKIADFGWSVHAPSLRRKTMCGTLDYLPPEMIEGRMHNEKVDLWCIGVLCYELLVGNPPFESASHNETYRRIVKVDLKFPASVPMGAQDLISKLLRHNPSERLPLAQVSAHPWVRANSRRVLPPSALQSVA
Sequence of Tyrosine-protein kinase JAK2 (O60674 whole entry): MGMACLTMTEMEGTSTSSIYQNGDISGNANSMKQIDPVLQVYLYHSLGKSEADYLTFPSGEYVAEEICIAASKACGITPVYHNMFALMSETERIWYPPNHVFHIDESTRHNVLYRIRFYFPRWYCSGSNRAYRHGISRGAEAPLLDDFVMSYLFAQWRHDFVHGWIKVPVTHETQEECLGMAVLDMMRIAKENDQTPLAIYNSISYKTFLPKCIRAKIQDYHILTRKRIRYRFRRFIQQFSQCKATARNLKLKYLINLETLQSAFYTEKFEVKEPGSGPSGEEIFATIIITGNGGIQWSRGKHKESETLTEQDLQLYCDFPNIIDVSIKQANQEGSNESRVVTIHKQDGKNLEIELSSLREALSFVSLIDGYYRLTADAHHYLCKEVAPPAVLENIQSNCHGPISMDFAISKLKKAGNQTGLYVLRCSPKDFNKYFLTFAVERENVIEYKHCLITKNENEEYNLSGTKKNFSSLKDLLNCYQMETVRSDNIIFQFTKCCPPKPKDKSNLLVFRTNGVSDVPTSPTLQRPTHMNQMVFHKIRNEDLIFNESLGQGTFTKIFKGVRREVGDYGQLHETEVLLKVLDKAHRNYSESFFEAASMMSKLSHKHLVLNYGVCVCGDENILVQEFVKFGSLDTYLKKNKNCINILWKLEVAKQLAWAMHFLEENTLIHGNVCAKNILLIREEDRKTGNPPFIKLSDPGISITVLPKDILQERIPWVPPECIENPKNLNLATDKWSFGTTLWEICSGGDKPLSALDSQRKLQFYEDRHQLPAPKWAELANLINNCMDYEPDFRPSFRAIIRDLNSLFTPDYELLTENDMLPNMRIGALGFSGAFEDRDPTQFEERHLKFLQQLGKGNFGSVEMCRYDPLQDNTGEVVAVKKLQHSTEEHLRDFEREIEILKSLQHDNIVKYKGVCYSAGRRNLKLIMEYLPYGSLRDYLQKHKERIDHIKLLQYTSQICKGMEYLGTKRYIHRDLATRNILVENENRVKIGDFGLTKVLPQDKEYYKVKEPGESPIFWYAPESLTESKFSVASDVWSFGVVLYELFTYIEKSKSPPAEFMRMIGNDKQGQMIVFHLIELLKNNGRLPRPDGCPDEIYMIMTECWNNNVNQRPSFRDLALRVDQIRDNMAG
Sequence of ALK tyrosine kinase receptor (Q9UM73 whole entry): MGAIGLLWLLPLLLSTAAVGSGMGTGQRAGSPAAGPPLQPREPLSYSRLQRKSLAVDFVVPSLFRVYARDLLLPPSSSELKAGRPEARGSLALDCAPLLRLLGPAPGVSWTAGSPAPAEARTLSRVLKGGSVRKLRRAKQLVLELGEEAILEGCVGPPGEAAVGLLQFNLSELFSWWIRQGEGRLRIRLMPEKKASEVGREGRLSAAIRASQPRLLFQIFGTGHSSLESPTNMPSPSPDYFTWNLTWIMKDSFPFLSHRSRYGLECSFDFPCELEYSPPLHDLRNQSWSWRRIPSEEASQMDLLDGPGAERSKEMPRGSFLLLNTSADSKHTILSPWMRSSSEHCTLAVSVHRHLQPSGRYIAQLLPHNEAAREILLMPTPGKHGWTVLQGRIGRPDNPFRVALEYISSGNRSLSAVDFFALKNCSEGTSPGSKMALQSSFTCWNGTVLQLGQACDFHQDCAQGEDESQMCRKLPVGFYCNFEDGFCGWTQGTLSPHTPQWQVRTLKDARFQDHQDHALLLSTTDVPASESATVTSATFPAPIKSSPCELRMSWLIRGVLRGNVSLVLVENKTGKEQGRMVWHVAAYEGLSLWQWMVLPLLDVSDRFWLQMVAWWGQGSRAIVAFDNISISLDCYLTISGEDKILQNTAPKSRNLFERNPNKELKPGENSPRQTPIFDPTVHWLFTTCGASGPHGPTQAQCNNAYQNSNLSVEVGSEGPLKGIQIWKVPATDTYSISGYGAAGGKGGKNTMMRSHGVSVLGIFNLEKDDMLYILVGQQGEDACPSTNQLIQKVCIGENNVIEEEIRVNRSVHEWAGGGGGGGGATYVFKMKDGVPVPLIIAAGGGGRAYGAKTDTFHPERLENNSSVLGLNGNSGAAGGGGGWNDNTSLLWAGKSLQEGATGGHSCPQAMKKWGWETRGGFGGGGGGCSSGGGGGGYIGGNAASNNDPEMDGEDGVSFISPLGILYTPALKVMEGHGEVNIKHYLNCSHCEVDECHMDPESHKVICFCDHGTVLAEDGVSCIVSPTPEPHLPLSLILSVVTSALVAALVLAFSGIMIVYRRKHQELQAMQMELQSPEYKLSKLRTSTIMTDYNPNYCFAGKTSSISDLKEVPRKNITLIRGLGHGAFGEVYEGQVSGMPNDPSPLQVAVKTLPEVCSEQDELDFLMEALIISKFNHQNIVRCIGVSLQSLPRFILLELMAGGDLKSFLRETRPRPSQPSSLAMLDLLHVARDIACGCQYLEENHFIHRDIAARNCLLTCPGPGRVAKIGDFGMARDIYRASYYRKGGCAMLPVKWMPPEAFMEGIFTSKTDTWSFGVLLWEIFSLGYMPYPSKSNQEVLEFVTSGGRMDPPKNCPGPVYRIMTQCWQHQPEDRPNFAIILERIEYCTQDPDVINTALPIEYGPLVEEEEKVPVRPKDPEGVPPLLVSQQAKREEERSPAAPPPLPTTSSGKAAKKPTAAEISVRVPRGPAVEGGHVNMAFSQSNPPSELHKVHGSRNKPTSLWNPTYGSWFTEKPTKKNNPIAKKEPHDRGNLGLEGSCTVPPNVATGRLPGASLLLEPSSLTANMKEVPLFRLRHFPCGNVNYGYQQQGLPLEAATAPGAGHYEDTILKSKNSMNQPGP
Sequence of Aurora kinase C (Q9UQB9 whole entry): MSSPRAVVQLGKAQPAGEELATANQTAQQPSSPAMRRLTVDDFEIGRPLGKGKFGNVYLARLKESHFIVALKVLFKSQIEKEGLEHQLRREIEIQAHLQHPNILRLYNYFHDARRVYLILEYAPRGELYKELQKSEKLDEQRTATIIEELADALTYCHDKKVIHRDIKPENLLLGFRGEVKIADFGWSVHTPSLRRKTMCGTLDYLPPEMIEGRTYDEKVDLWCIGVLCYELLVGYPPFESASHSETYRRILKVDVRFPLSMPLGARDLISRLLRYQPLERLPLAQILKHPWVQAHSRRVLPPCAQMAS

IC50 (Aurora kinase A): 20 µM
IC50 (Aurora kinase B): 8 µM
IC50 (Aurora kinase C): 0.1 µM
Structure (SMILES): CC(=O)O/N=C1/C(=C2/C(=O)Nc3c(Br)cccc32)Nc2ccccc21

IC50 [1]: 0.0013 µM
Structure (SMILES): Cl.Cl.O=C1Nc2cc(Br)ccc2/C1=C1/Nc2ccccc2/C1=N\OCCN1CCNCC1

Structure (SMILES): O=C1Nc2cc(Br)ccc2/C1=C1/Nc2ccccc2/C1=N\O [6BIO]
Activity (A2058): 80%
Activity [2]: 80%
Activity (MCF7 [3]): 75%

IC50 (K-562R): 0.783 µM
Structure (SMILES): O=C1Nc2ccc([N+](=O)[O-])cc2/C1=C1/Nc2ccc(O)cc2/C1=N\O
Activity (K562): 90%

IC50 (SK-N-SH): 0.07 µM
Structure (SMILES): O=C1Nc2ccccc2/C1=C1/Nc2ccccc2/C1=N\OCC1CO1 (configuration not stated)
IC50 (IMR-32): 0.16 µM

IC50 [5]: 0.95 µM
IC50 [6]: 0.95 µM
IC50 (HCT-116): < 0.1 µM
Structure (SMILES): O=C1Nc2ccccc2/C1=C1/Nc2ccccc2/C1=N\OCC(O)CO (configuration not stated)
Activity (CT26 [4]): 46.8%
IC50 (LXFL 529): 0.9 µM
Activity (CT26 [7]): 49.3%

IC50 [8]: > 100 µM
IC50 [9]: > 100 µM
Structure (SMILES): CN1C(=O)/C(=C2\Nc3ccccc3\C2=N/O)c2ccccc21
IC50 (LNCaP): 68.9 µM
IC50 (MCF7 [10]): 58.6 µM
IC50 (LoVo): > 100 µM
IC50 [11]: 73 µM

IC50 [12]: > 10 µM
IC50 [13]: > 10 µM
IC50 (HT-29): 4.22 µM
IC50 [14]: > 10 µM
Structure (SMILES): O=C1Nc2ccc(C(=O)N3CCCCC3)cc2/C1=C1/Nc2ccccc2/C1=N\O
